Data published in patent US10155021B2, “Antimicrobial 4-oxoquinolizines” (Emergent Product Development Gaithersburg Inc., priority 2011, dated 2018).
Values after ≈ are worked out from the molar mass of the structure shown. Like-named read-outs stand apart in the source and are kept apart here.

Key:
B. thailandensis = assay: microbe, parasite or virus in culture; assay type: cell-based, Burkholderia thailandensis; details: for MIC90: Burkholderia thailandensis, read-out: MIC90 B. thailandensis; for Dilutions improvement shift on B. thailandensis MIC90 (between pH 7 and pH 5): pH 7 versus pH 5
S. aureus 25923 = assay: MIC, standard panel of Gram-positive and Gram-negative bacteria (CLSI); assay type: cell-based, Staphylococcus aureus; details: Staphylococcus aureus, 25923; CAMHB; read-out: MIC S. aureus 25923
S. aureus 25923 HS = assay: as above; assay type: cell-based; details: Staphylococcus aureus, CAMHB, HS, read-out: MIC S. aureus 25923 HS
S. aureus 101 = assay: as above; assay type: cell-based, Staphylococcus aureus; details: Staphylococcus aureus, 101; CAMHB; read-out: MIC S. aureus 101
S. epidermis 12228 = assay: as above; assay type: cell-based, Staphylococcus epidermis; details: Staphylococcus, 12228; CAMHB; read-out: MIC S. epidermis 12228
P. aeruginosa 27853 = assay: as above; assay type: cell-based, Pseudomonas aeruginosa; details: Pseudomonas aeruginosa, 27853; CAMHB; read-out: MIC P. aeruginosa 27853
A. Baumanii OXA-51 = assay: MIC, panel of quinolone-resistant strains (CLSI); assay type: cell-based; details: Acinetobacter baumannii; CIP R, ESBL
S. pneumoniae 1027 = assay: MIC, panel of quinolone-resistant strains (CLSI); assay type: cell-based; details: Streptococcus pneumoniae, LEV R
A. baumannii A489 = assay: MIC determination for Acinetobacter strains (Example 3); assay type: cell-based; details: LEV R, CIP R, MRP R, IMP R, AMK R, TET R
A. baumannii A390 [1] = assay: as above; assay type: cell-based; details: LEV R, CIP R, MRP R, IPM I, AMK R, TET I
A. baumannii A472 = assay: as above; assay type: cell-based; details: LEV R, CIP R, MRP I, IMP I, AMK R, TET R
A. baumannii A473 = assay: as above; assay type: cell-based; details: LEV R, CIP R, MRP R, IMP R, AMK R, TET R
A. baumannii ATCC 19606 [2] = assay: MIC without and with sub-inhibitory polymyxin B (Example 4); assay type: cell-based, Acinetobacter baumannii; details: Acinetobacter baumannii
[3] = test system: Acinetobacter sp. (H064200250); assay: as above; assay type: cell-based; details: Acinetobacter, without polymyxin B
A. baumannii A390 [4] = assay: as above; assay type: cell-based, Acinetobacter baumannii; details: Acinetobacter baumannii, A390, A. baumannii A390, without polymyxin B, read-out: MIC without PB
A. baumannii ATCC 19606 [5] = assay: Preliminary MBC without and with sub-inhibitory polymyxin B (Example 4); assay type: cell-based, Acinetobacter baumannii; details: Acinetobacter baumannii, ATCC19606, A. baumannii ATCC 19606, without polymyxin B, preliminary MBC, read-out: MBC without PB
E. coli IMP = assay: microbe, parasite or virus in culture; details: Escherichia coli, read-out: MIC E. coli IMP
S. aureus SMITH = assay: MIC, panel of quinolone-resistant strains (CLSI); assay type: cell-based; details: Staphylococcus aureus; CIP R
A. baumannii ATCC 19606 [6] = assay: MIC determination for Acinetobacter strains (Example 3); assay type: cell-based; details: ATCC19606, reference strain
A. baumannii A387 [7] = assay: MIC without and with sub-inhibitory polymyxin B (Example 4); assay type: cell-based, Acinetobacter baumannii; details: Acinetobacter baumannii, A387, A. baumannii A387; without polymyxin B; 2nd experiment; visual reading; read-out: MIC without PB
A. baumannii J2 = assay: MIC determination for Acinetobacter strains (Example 3); assay type: cell-based; details: LEV R, CIP R
[8] = test system: 11 strains of A. baumannii and one strain of Acinetobacter sp.; assay: Preliminary MBC without and with sub-inhibitory polymyxin B, whole panel (Example 4; also strains not listed separately); assay type: cell-based; details: Acinetobacter baumannii, read-out: MBC without PB
B. thailandensis E264 = assay: microbe, parasite or virus in culture; assay type: cell-based, Burkholderia thailandensis; details: Burkholderia thailandensis, E264, read-out: MIC B. thailandensis E264
E. coli ATCC 25922 = assay: MIC, selected panel of Gram-positive and Gram-negative strains (Example 5); assay type: cell-based, Escherichia coli; details: Escherichia coli, ATCC25922; read-out: MIC E. coli ATCC 25922
P. aeruginosa ATCC 27853 = assay: as above; assay type: cell-based; details: Pseudomonas aeruginosa, ATCC27853; read-out: MIC P. aeruginosa ATCC 27853
[9] = test system: S. aureus ATCC 43300 (MRSA, FQ-S); assay: as above; assay type: cell-based, Staphylococcus aureus; details: Staphylococcus aureus; read-out: MIC S. aureus ATCC 43300 (MRSA, FQ-S)
E. coli 25922 = assay: MIC, standard panel of Gram-positive and Gram-negative bacteria (CLSI); assay type: cell-based, Escherichia coli; details: Escherichia coli, 25922; CAMHB; read-out: MIC E. coli 25922
A. baumannii A387 [10] = assay: Preliminary MBC without and with sub-inhibitory polymyxin B (Example 4); assay type: cell-based, Acinetobacter baumannii; details: Acinetobacter baumannii, A387, A. baumannii A387, without polymyxin B, 2nd experiment, read-out: MBC without PB
[11] = ATCC19606, A. baumannii ATCC 19606, without polymyxin B, 2nd experiment, visual reading, read-out: MIC without PB
[12] = Acinetobacter spp. H064200250 (OXA51), 2nd experiment, MIC read with alamar blue, read-out: MIC without PB, read with alamar blue
[13] = Acinetobacter spp. H064200250 (OXA51), 2nd experiment, visual reading, read-out: MIC without PB
[14] = Acinetobacter spp. H064200250, 1st experiment, read-out: MIC without PB
[15] = ATCC19606, A. baumannii ATCC 19606, without polymyxin B, 1st experiment, read-out: MIC without PB
[16] = A. baumannii A14, without polymyxin B, 1st experiment
[17] = A. baumannii A14, without polymyxin B, 2nd experiment

| Compound | MIC90 (B. thailandensis) | Dilutions improvement shift on B. thailandensis MIC90 (between pH 7 and pH 5) (B. thailandensis) | MIC (S. aureus 25923) | MIC (S. aureus 101) | MIC (S. epidermis 12228) | MIC (P. aeruginosa 27853) | MIC (A. Baumanii OXA-51) | MIC (S. pneumoniae 1027) | MIC (A. baumannii A489) | MIC (A. baumannii A390 [1]) | MIC (A. baumannii A472) | MIC (A. baumannii ATCC 19606 [2]; [11]) | MIC [3, 12] | MIC [3, 13] | MIC [3, 14] | MIC (A. baumannii A390 [4]; 1st experiment) | MBC (A. baumannii ATCC 19606 [5]; 2nd experiment) | MIC (E. coli IMP) | MIC (A. baumannii ATCC 19606 [6]) | MIC (A. baumannii ATCC 19606 [2]; [15]) | further results |
| --- | --- | --- | --- | --- | --- | --- | --- | --- | --- | --- | --- | --- | --- | --- | --- | --- | --- | --- | --- | --- | --- |
| Cc1c(-c2ccc(N)cc2)c(F)cn2c(=O)c(C(=O)O)cc(C3CC3)c12 [Compound 7, 8-(4-amino-phenyl)-1-cyclopropyl-7-fluoro-9-methyl-4-oxo-quinolizine-3-carboxylic acid] | < 0.048 µg/mL | Yes, 4× | < 8 ng/mL | 1 µg/mL (≈ 2.84 µM) | < 8 ng/mL | 4 µg/mL (≈ 11.4 µM) | 8 µg/mL (≈ 22.7 µM) | 4 µg/mL (≈ 11.4 µM) | 8 µg/mL (≈ 22.7 µM) | 8 µg/mL (≈ 22.7 µM) | 4 µg/mL (≈ 11.4 µM) | 0.25 µg/mL (≈ 0.709 µM) | 8 µg/mL (≈ 22.7 µM) | 16 µg/mL (≈ 45.4 µM) | 8 µg/mL (≈ 22.7 µM) | 8 µg/mL (≈ 22.7 µM) | 0.25 µg/mL (≈ 0.709 µM) | < 8 ng/mL |  |  | MIC (S. aureus 25923 HS): 1 µg/mL (≈ 2.84 µM); MIC (A. baumannii A473): 4 µg/mL (≈ 11.4 µM) |
| Cc1c(-c2ccc(N)cc2)ccn2c(=O)c(C(=O)O)cc(C3CC3)c12 [Compound 8, 8-(4-amino-phenyl)-1-cyclopropyl-9-methyl-4-oxo-quinolizine-3-carboxylic acid] | < 0.024 µg/mL |  | < 8 ng/mL |  | < 8 ng/mL | 1 µg/mL (≈ 2.99 µM) | 4 µg/mL (≈ 12 µM) | 2 µg/mL (≈ 5.98 µM) |  | 16 µg/mL (≈ 47.9 µM) | 4 µg/mL (≈ 12 µM) |  | 8 µg/mL (≈ 23.9 µM) | 4 µg/mL (≈ 12 µM) | 2 µg/mL (≈ 5.98 µM) | 16 µg/mL (≈ 47.9 µM) |  | < 8 ng/mL | 1 µg/mL (≈ 2.99 µM) | 1 µg/mL (≈ 2.99 µM) | MIC (S. aureus SMITH): < 0.03 µg/mL; MIC (A. baumannii A387 [7]): 1 µg/mL (≈ 2.99 µM); MIC (A. baumannii A390 [4]; 2nd experiment, visual reading): 16 µg/mL (≈ 47.9 µM) |
| C[C@H]1COc2c(N3CCN(C)CC3)c(F)cc3c(=O)c(C(=O)O)cn1c23 [Levofloxacin, reference compound] |  |  |  |  |  |  |  | 16 µg/mL (≈ 44.3 µM) |  |  |  | 1 µg/mL (≈ 2.77 µM) |  | 16 µg/mL (≈ 44.3 µM) | 16 µg/mL (≈ 44.3 µM) |  | 1 µg/mL (≈ 2.77 µM) |  | 1 µg/mL (≈ 2.77 µM) | 1 µg/mL (≈ 2.77 µM) | MIC (S. aureus SMITH): 8 µg/mL (≈ 22.1 µM); MIC (A. baumannii J2): 32 µg/mL (≈ 88.6 µM); MBC [8, 16]: 32 µg/mL (≈ 88.6 µM); MBC [8, 17]: 32 µg/mL (≈ 88.6 µM); MBC ([8]; NCTC13301, A. baumannii NCTC 13301, without polymyxin B, 1st experiment): 32 µg/mL (≈ 88.6 µM); MIC (A. baumannii ATCC 19606 [2]; ATCC19606, read-out: MIC +0.06 μg/ml PB, read with alamar blue, A. baumannii ATCC 19606, +0.06 μg/ml polymyxin B, 2nd experiment, MIC read with alamar blue): 0.5 µg/mL; MBC (A. baumannii ATCC 19606 [5]; 1st experiment): 0.5 µg/mL (≈ 1.38 µM); MIC (B. thailandensis E264): 4 µg/mL (≈ 11.1 µM); MIC (E. coli ATCC 25922): 0.016 µg/mL (≈ 0.0443 µM); MIC (P. aeruginosa ATCC 27853): 1 µg/mL (≈ 2.77 µM); MIC [9]: 0.25 µg/mL (≈ 0.692 µM) |
| Cc1c(-c2ccc(CN)c(F)c2)ccn2c(=O)c(C(=O)O)cc(C3CC3)c12 [Compound 4, 8-(3-fluoro-4-aminomethyl-phenyl)-1-cyclopropyl-9-methyl-4-oxo-quinolizine-3-carboxylic acid] |  |  |  | 4 µg/mL (≈ 10.9 µM) |  |  | 16 µg/mL (≈ 43.7 µM) | 1 µg/mL (≈ 2.73 µM) |  |  |  |  | 16 µg/mL (≈ 43.7 µM) | 32 µg/mL (≈ 87.3 µM) | 16 µg/mL (≈ 43.7 µM) |  |  | < 8 ng/mL |  |  | MIC (E. coli 25922): < 0.03 µg/mL; MBC [8, 16]: 16 µg/mL (≈ 43.7 µM); MBC [8, 17]: > 32 µg/mL; MBC ([8]; NCTC13301, A. baumannii NCTC 13301, without polymyxin B, 2nd experiment): 32 µg/mL (≈ 87.3 µM); MIC (B. thailandensis E264): 1 µg/mL (≈ 2.73 µM); MIC (E. coli ATCC 25922): 0.016 µg/mL (≈ 0.0437 µM); MIC (P. aeruginosa ATCC 27853): 1 µg/mL (≈ 2.73 µM); MIC [9]: 0.032 to 0.064 µg/mL (≈ 0.0873 to 0.175 µM) |
| Cc1c(-c2ccc(N)c(F)c2)ccn2c(=O)c(C(=O)O)cc(C3CC3)c12 [Compound 1, 8-(3-fluoro-4-amino-phenyl)-1-cyclopropyl-9-methyl-4-oxo-quinolizine-3-carboxylic acid] | < 0.048 µg/mL | Yes, 4× |  |  |  |  |  |  | 4 µg/mL (≈ 11.4 µM) | 16 µg/mL (≈ 45.4 µM) | 8 µg/mL (≈ 22.7 µM) | 0.25 µg/mL (≈ 0.709 µM) |  | 16 µg/mL (≈ 45.4 µM) | 8 µg/mL (≈ 22.7 µM) | 16 µg/mL (≈ 45.4 µM) | 0.25 µg/mL (≈ 0.709 µM) |  | 0.25 µg/mL (≈ 0.709 µM) | 0.25 µg/mL (≈ 0.709 µM) | MIC (A. baumannii J2): 8 µg/mL (≈ 22.7 µM); MIC (A. baumannii A473): 4 µg/mL (≈ 11.4 µM); MIC (A. baumannii A387 [7]): 4 µg/mL (≈ 11.4 µM); MIC (A. baumannii A390 [4]; 2nd experiment, visual reading): 16 µg/mL (≈ 45.4 µM); MBC (A. baumannii ATCC 19606 [5]; 1st experiment): 0.25 µg/mL (≈ 0.709 µM); MBC (A. baumannii A387 [10]): 4 µg/mL (≈ 11.4 µM) |
